Test results taken from patent publication US20040167226A1, “Methods for the treatment of pain and traumatic injury using benzamides and compositions containing the same” (priority 2002, published 2004).

Assays:
[1] = PK parameter estimates, 30 mg/kg po in 1% methyl cellulose; type: in vivo, rats; settings: rat, plasma, rats, 30 mg/kg po in 1% methyl cellulose, n = 3
From the text: The time course of plasma concentration of compound N is depicted in FIG. 1 as well.

[2] = system: Taxol-induced mechanical allodynia; assay: Taxol-induced neuropathic pain rat model, 50% paw withdrawal threshold (up-down method); type: in vivo, Sprague-Dawley rats; settings: rats, 50 mg/kg p.o. in 1% methylcellulose (positive control)
From the text: Sprague-Dawley male rats with 150-160 grams of body weight were used in the studies presented herein. Rats were trained in the enclosure one hour per day in the morning for a one week period prior to obtaining the baseline response. Whereas the mouse studies assessed percentage of response, the rat studies determined 50% of the paw withdrawal threshold, also called the up-down method as developed by Chung and colleagues. In order to obtain consistent data, naïve rats with paw withdrawal threshold no less than 4 grams were included for further studies. Taxol at a dose of 1 mg/kg (body weight) was administered daily to rats intraperitoneally. As observed in mice, the rats treated with Taxol daily developed stable mechanical allodynia on day 9 and thereafter. On day 13 and day 14 of Taxol induction, the rats pain behavior in term of 50% of paw withdrawal threshold was measured. Only those rats with paw withdrawal threshold measurements no greater than 7 grams for two consecutive days were included for drug testing. Generally speaking, the mechanical allodynia in Taxol treated rats fell in the range of 1-4 gram of paw withdrawal threshold.
1 ml per kg of body weight of either 50 mg/ml or 20 mg/ml of Compound A was administered to rats via oral gavage feeding (p.o.), to yield a dose of either 50 mg/Kg (body weight) or 20 mg/Kg (body weight). The same corresponding volume of 1% methylcellulose was used as vehicle control. 34 male Sprague-Dawely rats were employed for the study. The baseline paw withdrawal threshold (grams of force applied to the plantar area of the right hind paw) and neuropathic pain induction with daily intraperitoneal administration of 1 mg/kg (body weight) was performed as indicated in the previous section. The Taxol treatment was continued for 15 days until the pain threshold remained relatively stable. Animals with baseline greater than 4 grams and with threshold […] post induction were included in the drug testing. 27 rats met the criteria for the next step studies and were randomly assigned into four groups. Group 1 consisting of 7 rats was given 1% methylcellulose as vehicle control group, 1 ml of vehicle per kilograms of body weight was administered to animal via p.o.; group 2 with 6 animals was dosed at 20 mg/kg (body weight) of Compound A via oral gavage feeding (p.o.); group 3 with 7 rats was dosed at 50 mg/kg of Compound A, and the fourth group with 7 rats received Gabapentine at 50 mg/kg via p.o. in the same vehicle as a positive control group. Those rats were habituated in the enclosure and 50% of paw withdrawal thresholds (grams of force) were measured using a set of von Frey filaments, as described in the previous section, at time points of 1, 2, 3, 6, and 24 hours postdosing in a blinded fashion. The tester had no knowledge of which animals received drug or vehicle. It was noted that rats tested were very sleepy in the late afternoon (for 6 hour postdosing measurement), thus the data would not be reliable for 6-hour postdosing time points. […] After finishing the 24 hour postdosing measurement, the paw withdrawal threshold of each animal was calculated and data was analyzed.

SMILES: CC(=O)Nc1cccc(C(=O)NC(C)(C)C)c1 [Compound D, N-tert-butyl-3-acetamidobenzamide]
- melting point: 194 to 195 °C

SMILES: CC(C)(C)NC(=O)c1cccc([N+](=O)[O-])c1 [Compound G, N-tert-butyl-3-nitrobenzamide]
- melting point: 123 to 125 °C

SMILES: CC(C)(C)NC(=O)c1ccc(N)cc1 [Compound N, N-tert-butyl-4-aminobenzamide]
- AUC(0-inf) [1]: 1030 µg·h/mL
- Cmax [1]: 5.4 µg/mL
- Tmax [1]: 0.5 h
- half-life ([1]; read-out: Elim.t1/2 (converted)): 355 h
- melting point: 125 to 127 °C

SMILES: NCC1(CC(=O)O)CCCCC1 [Gabapentine, reference compound]
- time of peak analgesic effect postdosing [2]: 3 to 6 h
